Measured values reported in US11731946B2, “Broad spectrum antivirulence, anti-persistence compounds” (priority 2017, dated 2023).
Values joined by “and” are separate entries in the source; they are usually repeats but may differ in a detail not shown here. Equal values may be shown once. “Also recorded” adds a separate entry of the source. Read-outs that look alike come from different tables or passages of the source.

Tests used:
MvfR regulon [1] = test: pqsA gene expression (pqsA-GFP reporter); assay type: cell-based, P. aeruginosa; settings: for IC50 / activity at 10 µM / activity at 50 µM: Pseudomonas aeruginosa; for IC50: read-out: IC50 pqsA (μM); for activity at 10 µM: read-out: pqsA @10 uM (%), compound at 10 uM; for activity at 50 µM: read-out: pqsA @50 uM (%), compound at 50 uM
MvfR = biological target: T1, MvfR (Pseudomonas aeruginosa, UniProt Q9I4X0); test: Surface plasmon resonance (SPR) binding to purified MvfR co-inducer binding domain; design: species or system P. aeruginosa; settings: for Signal Intensity Rmax / binding intensity relative to parent Compound 1 / Kd: SPR
T1 construct: made in house
Method: Compounds identified to interfere with MvfR were confirmed for the direct physical interaction with this protein. Using SPR, the percentage of compound's binding to the purified MvfR protein was analyzed and used to determine the binding parameters (KD, kon and koff)—thus determining the kinetic of interaction with MvfR.
The recombinant MvfR co-inducer binding domain was purified using Ni-NTA chromatography, as previously reported (see e.g., Xiao et al, Microbiology, 2006, 152:1679-1686; Starkey et al, PLoS Pathog. 2014, 10:e1004321; and Kefala et al, Acta. Crystallogr. Sect. F. Struct. Biol. Cryst. Commun. 2012, 68:695-697). The purified protein was immobilized with the amine coupling method at a target level of 5000 RU on Chip. SPR was performed according to previously reported procedures (see e.g., Starkey et al, PLoS Pathog. 2014, 10:e1004321; Maura et al, ACS Chemical Biology, 2017, 12:1435-1443; and Kitao et al, MBIO, in press). […] Table 3 lists the steady-state KD data measured by SPR.

MvfR regulon [2] = test: Quantification of pyocyanin (OD520nm of chloroform-extracted cultures); assay type: cell-based, P. aeruginosa; settings: for activity at 50 µM: read-out: pyocyanin @50 uM (%), compound at 50 uM; for activity at 1 µM: read-out: pyocyanin @1 uM (%), compound at 1 uM; for activity at 10 µM: read-out: pyocyanin @10 uM (%), compound at 10 uM
[3] = test system: Caco2 intestinal epithelial cells; test: Survival of Caco2 cells after compound exposure; assay type: cell-based; settings: 25 μM, 3 hours exposure
[4] = test system: Pseudomonas aeruginosa MDR clinical isolates; test: Pyocyanin production in MDR clinical isolates; assay type: cell-based; settings: 10 μM
Method: Percentage of pyocyanin production is presented in presence of 10 μM of D57 or D88 compounds. Tukey's multiple comparisons test p<0.0001.
Pyocyanin levels were determined by measuring OD520nm of chloroform-extracted cultures.

MvfR regulon [5] = test: LC/MS quantification of HAQs and related molecules in bacterial culture supernatants; assay type: cell-based, P. aeruginosa; settings: Pseudomonas aeruginosa
PA14 [6] = test: Mouse thigh infection model (PA14); assay type: in vivo, mice
Method: Mice were infected with 5×10^5 and 5×10^6 PA14 cells for the thigh and lung infection model respectively. FIGS. 5A-5C: Thigh model: treatment was initiated […] and repeated at 4, 8, 12 and 18 hours. FIG. 5A: monotherapy with Compound 72, 10 mg/kg (P<0.05 Mann Whitney test); FIG. 5B-5C. Combinatorial: Compound 72 (10 mg/kg) plus Ciprofloxacin 1 mg/kg (subtherapeutic dose) (FIG. 5B: P<0.05; Figure C: P>0.05; Mann Whitney test). CFUs were assessed 24 h post-infection in the thigh (FIG. 5A), liver (FIG. 5B) and spleen (FIG. 5C). Compound 72 was administered subcutaneously and ciprofloxacin intraperitoneally (IP). […] Mice were infected with 5×10^6 PA14 cells lung infection model. Compound 54 (10 mg/kg) plus ciprofloxacin 1 mg/kg treatment (subtherapeutic dose) was initiated at 2 h post-infection and repeated at 6, 12, and 18 h post-infection. CFUs were assessed 24 h post-infection in the lung. Compound 54 was administered subcutaneously and ciprofloxacin intraperitoneally (IP).
Thigh infection studies were performed using Compounds 54 and 72.

[7] = Pharmacokinetics in mouse plasma and lung after single subcutaneous injection; assay type: in vivo, mice; settings: for stability in vivo (serum concentration): 10 mg/kg subcutaneous, over 24 h; for pharmacokinetics (in words): mouse, in vivo
Method: FIGS. 1F-1G show pharmacokinetics measured in mouse plasma (FIG. 1F) and lung (FIG. 1G) following a single subcutaneous injection of Compounds 53, 54, or 72 at 10 mg/kg.

PA14 [8] = test: Antibiotic tolerance/persister (AT/P) cell formation, meropenem, CFU plating; assay type: cell-based, P. aeruginosa; settings: 50 μM compound
Method: Wild type (PA14) P. aeruginosa was grown in liquid culture with or without Compound 54 and treated with meropenem according to published procedures (see e.g., Starkey et al, PLoS Pathog. 2014, 10:e1004321). Data are expressed as fraction of original culture surviving antibiotic treatment.
AT/P efficacy of compounds using CFU plating was assessed by growning over-night, cultures diluted 1:100 in triplicate in fresh LB medium in the presence or absence of inhibitor, and re-grown to an OD600 of 2.0 while shaking under aeration at 37° C. Before the antibiotic treatment, aliquots were plated to obtain reference colony counts. […] At 24-h and 48-h time points, the number of surviving bacteria were assessed by plating. The survival fraction of AT/P cells was calculated by dividing the number of surviving bacteria by the number of live bacteria that were present before the antibiotic treatment (reference datum) and expressed as a mean (±SD) of at least three replicate experiments. Using the same CFU plating assay, the efficacy of all compounds identified will be tested against additional antibiotic classes: b-lactams (ceftazidime, cefepime and imipenem), quinolones (ciprofloxacin, moxifloxacin, and levofloxacin), and aminoglycosides (gentamicin and tobramycicn).

[9] = Steady State Binding Affinity KD (μM), steady state
[10] = Steady State Binding Affinity KD [M], steady state
[11] = mean KD value, mean over the compounds named
[12] = Pseudomonas aeruginosa, read-out: IC50 pyocyanin (μM)
[13] = read-out: IC50 AA (increase; μM)
[14] = compound at 10 uM, listed as D62
[15] = compound at 50 uM, listed as D62

T1 sequence (Q9I4X0 91-332): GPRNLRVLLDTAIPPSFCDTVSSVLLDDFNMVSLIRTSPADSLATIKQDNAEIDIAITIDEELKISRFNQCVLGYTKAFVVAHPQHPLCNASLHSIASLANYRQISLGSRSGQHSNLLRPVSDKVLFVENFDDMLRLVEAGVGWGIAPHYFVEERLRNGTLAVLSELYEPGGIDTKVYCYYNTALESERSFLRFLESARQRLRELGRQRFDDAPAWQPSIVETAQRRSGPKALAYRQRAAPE

Row | Structure (SMILES) | IC50 (MvfR regulon [1]) | activity at 10 µM (MvfR regulon [1]) | activity at 50 µM (MvfR regulon [1]) | Signal Intensity Rmax (MvfR) | Kd (MvfR; [9]) | Kd (MvfR; [10]) | Kd (MvfR; [11]) | IC50 (MvfR regulon [2]; [12]) | activity at 50 µM (MvfR regulon [2]; Pseudomonas aeruginosa) | toxicity to Caco2 (survival) [3] | activity at 1 µM (MvfR regulon [2]; Pseudomonas aeruginosa) | activity at 10 µM (MvfR regulon [2]; Pseudomonas aeruginosa) | activity on pyocyanin production in MDR clinical isolates [4] | IC50 (MvfR regulon [5]; PA14, read-out: IC50 HHQ (μM)) | IC50 (MvfR regulon [5]; PA14, read-out: IC50 PQS (μM)) | activity at 50 µM (MvfR regulon [5]; read-out: 2-AA @50 uM) | activity at 50 µM (MvfR regulon [5]; read-out: DHQ @50 uM) | activity at 50 µM (MvfR regulon [5]; read-out: HHQ @50 uM (%)) | activity at 50 µM (MvfR regulon [5]; read-out: HQNO @50 uM (%)) | IC50 (MvfR regulon [5]; read-out: IC50 HQNO (μM)) | further results
1 | N#Cc1ccc(NC(=O)CC(=O)Nc2ccc(I)cc2)cc1 [Compound 71] | 0.72 µM | 13.3% | 6.03% | 30.74 | 0.259 µM | 0.259 µM | ~0.25 µM | 1.63 µM | 13.3% | not toxic | – | – | – | – | – | – | – | – | – | – | binding intensity relative to parent Compound 1 (MvfR): 40 times
2 | O=C(CC(=O)Nc1ccc([N+](=O)[O-])cc1O)Nc1ccc(Oc2ccccc2)cc1 [Compound 76] | 0.42 µM | 10% | 6.7% | 36.46 | 0.478 µM | 0.478 µM | – | 0.368 µM | 5.6% | – | 10.5% | 6.17% | highly active | – | – | – | – | – | – | – | –
3 | N#Cc1ccc(NC(=O)CC(=O)Nc2ccc([N+](=O)[O-])cc2)cc1 [Compound 65] | 2.54 µM | – | 9.5% | 29.51 | 0.399 µM | 0.399 µM | – | – | 3.4% | not toxic | 80.3% | 29.7% | – | 21.2 µM | 23 µM | 6.94% | 12.3% | 2.88% | 18.4% | 23.3 µM | IC50 (MvfR regulon [2]; read-out: IC50 pyocyanin): 4.48 µM; IC50 (MvfR regulon [5]; PA14, read-out: IC50 2-AA (μM)): 8.95 µM; IC50 (MvfR regulon [5]; PA14, read-out: IC50 DHQ (μM)): 11.3 µM; IC50 (MvfR regulon [5]; [13]): 34 µM; activity at 50 µM (MvfR regulon [5]; read-out: PQS @50 uM (%)): 6.32%
4 | N#Cc1ccc(NC(=O)CC(=O)Nc2ccc(Oc3ccccc3)cc2)c(O)c1 [Compound 78] | 0.938 µM | 9.63% | 7.3% | 34.69 | 0.494 µM | 0.494 µM | – | 0.618 µM | 5.9% | – | 8.8% | 5.73% | highly active | – | – | – | – | – | – | – | –
5 | N#Cc1ccc(NC(=O)CC(=O)Nc2ccc(Oc3ccccc3)cc2)cc1 [Compound 72] | 0.52 µM | 1.08% | 3.7% | 34.24 | 1.09 µM | 1.09 µM | 0.25 µM | 0.891 µM | 6.06% | not toxic | 14% | 16.8% | – | – | – | – | – | – | – | – | bacterial CFUs at the site of infection (PA14 [6]; 10 mg/kg SC, CFUs 24 h post-infection): decrease bacterial dissemination and titer at the infection site; also recorded: reduced bacterial CFUs; potentiation of ciprofloxacin in reducing PA cells dissemination in spleen and liver (PA14 [6]; 10 mg/kg compound SC plus ciprofloxacin 1 mg/kg IP): potentiated ciprofloxacin efficacy; activity on pyocyanin production in MDR clinical isolates ([4]; listed as D57): highly active; also recorded: confirmed; stability in vivo (serum concentration) [7]: stable in vivo; half-life ([7]; mouse lung, 10 mg/kg SC, read-out: lung half-life (converted)): 1.19 h; Tlast ([7]; mouse plasma, 10 mg/kg SC): ~6 h; half-life ([7]; mouse plasma, 10 mg/kg SC, read-out: plasma half-life (converted)): 1.13 h; pharmacokinetics (in words) [7]: promising pharmacokinetics
6 | N#Cc1ccc(NC(=O)CC(=O)Nc2ccc(Oc3ccccc3)cc2)c(N)c1 [Compound 77] | – | – | – | – | – | – | – | – | – | – | – | – | highly active | – | – | – | – | – | – | – | pqsA @10 uM (%) (MvfR regulon [1]; [14]): 1.51%; pqsA @50 uM (%) (MvfR regulon [1]; [15]): 6.20%; pyocyanin @1 uM (%) (MvfR regulon [2]; compound at 1 uM, listed as D62): 57.50%; pyocyanin @10 uM (%) (MvfR regulon [2]; [14]): 6.17%; pyocyanin @50 uM (%) (MvfR regulon [2]; [15]): 7.30%
7 | Cc1cc(F)ccc1NCC(=O)Nc1ccc(C#N)cc1 [Compound 1] | 20.2 µM | – | 32.4% | 23.41 | 9.18 µM | 9.19 µM | – | 70.6 µM | 66.8% | – | – | – | – | 10.4 µM | 15.1 µM | 101% | 135% | 2.67% | 17% | 20.3 µM | activity at 50 µM (MvfR regulon [5]; read-out: AA @50 uM): 100%; activity at 50 µM (MvfR regulon [5]; read-out: PQS @50 uM (%)): 10.5%
8 | N#Cc1ccc(NC(=O)CC(=O)Nc2ccc(Cl)cc2)cc1 [Compound 53] | 1.25 µM | 1.55% | 7.97% | 26.52 | 0.244 µM | 0.244 µM | ~0.25 µM and 0.25 µM | 2.4 µM | 6.23% | not toxic | – | – | – | 10.3 µM | 8.3 µM | 5.87% | 10.3% | 1.63% | 13.9% | 7.3 µM | binding to MvfR (in words) (MvfR; FIG. 1B): high affinity; binding intensity relative to parent Compound 1 (MvfR): 40 times; stability in vivo (serum concentration) [7]: stable in vivo; stability in vivo (serum concentration) ([7]; listed as D41): highly stable in vivo; pharmacokinetics (in words) [7]: promising pharmacokinetics; IC50 (MvfR regulon [5]; PA14, read-out: IC50 2-AA (μM)): 5.6 µM; IC50 (MvfR regulon [5]; PA14, read-out: IC50 DHQ (μM)): 9.1 µM; activity at 50 µM (MvfR regulon [5]; read-out: AA @50 uM): 739%; IC50 (MvfR regulon [5]; [13]): 14.5 µM; activity at 50 µM (MvfR regulon [5]; read-out: PQS @50 uM (%)): 8.37%; inhibition of persistence (PA14 [8]): inhibit persistence
